Among the data in patent publication US8183239B2, “Substituted piperazines and piperidines as modulators of the neuropeptide Y2 receptor” (Janssen Pharmaceutica NV, priority 2005, dated 2012) are IC50 values, retold here.

The target in the test is T1, Y2 receptors (Homo sapiens, UniProt P49146).
T1 construct: endogenous in cells; host or cells: KAN-Ts cells (membranes)
T1 sequence (P49146 1-381): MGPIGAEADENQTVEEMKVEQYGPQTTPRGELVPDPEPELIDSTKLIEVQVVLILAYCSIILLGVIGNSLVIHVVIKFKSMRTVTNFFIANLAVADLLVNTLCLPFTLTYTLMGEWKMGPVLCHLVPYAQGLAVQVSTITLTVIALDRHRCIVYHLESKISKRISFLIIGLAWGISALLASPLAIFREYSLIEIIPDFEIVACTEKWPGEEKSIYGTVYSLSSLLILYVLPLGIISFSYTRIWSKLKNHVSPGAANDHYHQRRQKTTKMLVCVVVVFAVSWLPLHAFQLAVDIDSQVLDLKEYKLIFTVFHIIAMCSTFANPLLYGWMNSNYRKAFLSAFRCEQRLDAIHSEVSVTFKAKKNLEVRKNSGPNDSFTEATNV
Kind of test: Radioligand binding assay ([125I]PYY, KAN-Ts cell membranes). Conditions: Table 1, [125I]PYY 80 pM, average of results, read-out: IC50. The protocol: Radioligand Binding Assay
KAN-Ts endogenously expressing Y2 receptors were used for the radioligand binding assay. Cells were grown to confluence on 150 cm^2 tissue culture plates, washed with phosphate-buffered saline (PBS), and scraped into 50 mL tubes. After centrifugation, the supernatant was aspirated, and the pellets frozen and stored at −80° C. Thawed pellets were homogenized with a polytron tissue grinder for 15 sec in 20 mM Tris-HCl, 5 mM EDTA. The homogenate was centrifuged at 800×g for 5 min and the collected supernatant was recentrifuged at 25000×g for 25 min. The resulting pellet was resuspended in binding buffer (20 mM HEPES, 120 mM NaCl, 0.22 mM KH2PO4, 1.3 mM CaCl2, 0.8 mM MgSO4). Membranes were incubated with [^125I]PYY (80 pM) in the presence or absence of test compound for 1 h at rt. The reaction was stopped by filtration through GF/C filter plates pre-soaked in 0.3% polyethylenimine and subsequently washed with Tris 50 mM, 5 mM EDTA buffer. Plates were dried for 1 h in a 55° C. oven, scintillation fluid was added and the radioactivity was counted in a Packard TopCount. Specific binding to the NPY receptor subtypes was determined by radioactivity that was bound in the presence of […]. Each binding experiment was repeated three to eight times, each in duplicate. IC50 values (i.e. concentration of unlabelled peptide or antagonist required to compete for 50% of specific binding to the radioligand) were calculated using the GraphPad Prism software (GraphPad Software Inc., San Diego Calif.) with a fit to a sigmoidal dose response curve. Data for compounds tested are presented in Tables 1 and 2 as an average of results obtained.
As for `CCC(CC)C(=O)Nc1ccc(N2CCN(C(C(=O)OC)c3ccccc3)CC2)cc1` (centres unmarked) [Example 60, {4-[4-(2-Ethyl-butyrylamino)-phenyl]-piperazin-1-yl}-phenyl-acetic acid methyl ester], the IC50 was determined as 527 nM.

Regarding `COC(=O)C(c1ccccc1)N1CCN(c2ccc(NC(=O)c3ccccc3)cc2F)CC1` (centres unmarked) [Example 61, [4-(4-Benzoylamino-2-fluoro-phenyl)-piperazin-1-yl]-phenyl-acetic acid methyl ester], the IC50 was 2500 nM.

For the compound `COC(=O)C(c1ccccc1)N1CCN(c2ccc(NC(=O)c3ccccc3C)cc2F)CC1` (centres unmarked) [Example 62, {4-[2-Fluoro-4-(2-methyl-benzoylamino)-phenyl]-piperazin-1-yl}-phenyl-acetic acid methyl ester], the IC50 amounted to 1300 nM.

On to `CCc1ccccc1C(=O)Nc1ccc(N2CCN(C(C(=O)OC)c3ccccc3)CC2)c(F)c1` (centres unmarked) [Example 63, {4-[4-(2-Ethyl-benzoylamino)-2-fluoro-phenyl]-piperazin-1-yl}-phenyl-acetic acid methyl ester], for which the IC50 stood at 600 nM.

With `COC(=O)C(c1ccccc1)N1CCN(c2ccc(NC(=O)c3ccccc3C(C)C)cc2F)CC1` (centres unmarked) [Example 64, {4-[2-Fluoro-4-(2-isopropyl-benzoylamino)-phenyl]-piperazin-1-yl}-phenyl-acetic acid methyl ester], the IC50 came out at 1000 nM.

`COC(=O)C(c1ccccc1)N1CCN(c2ccc(NC(=O)c3ccccc3OC)cc2F)CC1` (centres unmarked) [Example 65, {4-[2-Fluoro-4-(2-methoxy-benzoylamino)-phenyl]-piperazin-1-yl}-phenyl-acetic acid methyl ester]: the IC50 stood at 1300 nM.

Turning to `CNc1ccccc1C(=O)Nc1ccc(N2CCN(C(C(=O)OC)c3ccccc3)CC2)c(F)c1` (centres unmarked) [Example 68, {4-[2-Fluoro-4-(2-methylamino-benzoylamino)-phenyl]-piperazin-1-yl}-phenyl-acetic acid methyl ester], the IC50 worked out at 1400 nM.

Regarding `CCc1cccc(C(=O)Nc2ccc(N3CCN(C(C(=O)OC)c4ccccc4)CC3)cc2)c1` (centres unmarked) [Example 69, {4-[4-(3-Ethyl-benzoylamino)-phenyl]-piperazin-1-yl}-phenyl-acetic acid methyl ester], the IC50 came to 25000 nM.

`COC(=O)C(c1ccccc1)N1CCN(c2ccc(NC(=O)c3cccc(C)c3)cc2)CC1` (centres unmarked) [Example 72, {4-[4-(3-Methyl-benzoylamino)-phenyl]-piperazin-1-yl}-phenyl-acetic acid methyl ester]: the IC50 was determined as 6000 nM.

For the compound `COC(=O)C(c1ccccc1)N1CCN(c2ccc(NC(=O)CCC(C)C)cc2F)CC1` (centres unmarked) [Example 78, {4-[2-Fluoro-4-(4-methyl-pentanoylamino)-phenyl]-piperazin-1-yl}-phenyl-acetic acid methyl ester], the IC50 came to 230 nM.

Take `CCCCC(CC)C(=O)Nc1ccc(N2CCN(C(C(=O)OC)c3ccccc3)CC2)c(F)c1` (centres unmarked) [Example 79, {4-[4-(2-Ethyl-hexanoylamino)-2-fluoro-phenyl]-piperazin-1-yl}-phenyl-acetic acid methyl ester]: the IC50 turned out to be 100 nM.

Consider `CCCCC(CC)C(=O)Nc1ccc(N2CCN(C(C(=O)OC)c3ccccc3)CC2)cc1` (centres unmarked) [Example 82, {4-[4-(2-Ethyl-hexanoylamino)-phenyl]-piperazin-1-yl}-phenyl-acetic acid methyl ester], for which the IC50 worked out at 400 nM.

As for `CCCCCC(=O)Nc1ccc(N2CCN(C(C(=O)OC)c3ccccc3)CC2)cc1` (centres unmarked) [Example 83, [4-(4-Hexanoylamino-phenyl)-piperazin-1-yl]-phenyl-acetic acid methyl ester], the IC50 worked out at 3600 nM.

Turning to `COC(=O)C(c1ccccc1)N1CCN(c2ccc(NC(=O)CCc3ccccc3)cc2)CC1` (centres unmarked) [Example 84, Phenyl-{4-[4-(3-phenyl-propionylamino)-phenyl]-piperazin-1-yl}-acetic acid methyl ester], the IC50 is 3350 nM.

Take `CCCC(C)C(=O)Nc1ccc(N2CCN(C(C(=O)OC)c3ccccc3)CC2)cc1` (centres unmarked) [Example 85, {4-[4-(2-Methyl-pentanoylamino)-phenyl]-piperazin-1-yl}-phenyl-acetic acid methyl ester]: the IC50 came to 1300 nM.

As to `CCCCC(=O)Nc1ccc(N2CCN(C(C(=O)OC)c3ccccc3)CC2)cc1` (centres unmarked) [Example 86, [4-(4-Pentanoylamino-phenyl)-piperazin-1-yl]-phenyl-acetic acid methyl ester], the IC50 came to 4800 nM.

As for `COC(=O)C(c1ccccc1)N1CCN(c2ccc(NC(=O)CCC(C)C)cc2)CC1` (centres unmarked) [Example 87, {4-[4-(4-Methyl-pentanoylamino)-phenyl]-piperazin-1-yl}-phenyl-acetic acid methyl ester], the IC50 is 1700 nM.

`CCNC(=O)C(c1ccccc1)N1CCN(c2ccc(NC(=O)CCC(C)C)cc2F)CC1` (centres unmarked) [Example 88, 4-Methyl-pentanoic acid {4-[4-(ethylcarbamoyl-phenyl-methyl)-piperazin-1-yl]-3-fluoro-phenyl}-amide]: the IC50 came out at 1000 nM.

For the compound `CCCCC(CC)C(=O)Nc1ccc(N2CCN(C(C(=O)NCC)c3ccccc3)CC2)c(F)c1` (centres unmarked) [Example 89, 2-Ethyl-hexanoic acid {4-[4-(ethylcarbamoyl-phenyl-methyl)-piperazin-1-yl]-3-fluoro-phenyl}-amide], the IC50 was 1040 nM.

Take `CCNC(=O)C(c1ccccc1)N1CCN(c2ccc(NC(=O)CCc3ccccc3)cc2F)CC1` (centres unmarked) [Example 90, N-{4-[4-(Ethylcarbamoyl-phenyl-methyl)-piperazin-1-yl]-3-fluoro-phenyl}-3-phenyl-propionamide]: the IC50 was 9700 nM.

Consider `CCNC(=O)C(c1ccccc1)N1CCN(c2ccc(NC(=O)CCN(CC)CC)cc2F)CC1` (centres unmarked) [Example 91, 3-Diethylamino-N-{4-[4-(ethylcarbamoyl-phenyl-methyl)-piperazin-1-yl]-3-fluoro-phenyl}-propionamide], for which the IC50 stood at 10000 nM.

`CCNC(=O)C(c1ccccc1)N1CCN(c2ccc(NC(=O)Cc3ccncc3)cc2F)CC1` (centres unmarked) [Example 92, N-Ethyl-2-{4-[2-fluoro-4-(2-pyridin-4-yl-acetylamino)-phenyl]-piperazin-1-yl}-2-phenyl-acetamide]: the IC50 was 5100 nM.

For the compound `CCNC(=O)C(c1ccccc1)N1CCN(c2ccc(NC(=O)C(CC3CCCN3)C(F)(F)F)cc2F)CC1` (centres unmarked) [Example 93, N-{4-[4-(Ethylcarbamoyl-phenyl-methyl)-piperazin-1-yl]-3-fluoro-phenyl}-3,3,3-trifluoro-2-pyrrolidin-2-ylmethyl-propionamide], the IC50 worked out at 5000 nM.

On to `CCNC(=O)C(c1ccccc1)N1CCN(c2ccc(NC(=O)C(CC3CCCCN3)C(F)(F)F)cc2F)CC1` (centres unmarked) [Example 94, N-{4-[4-(Ethylcarbamoyl-phenyl-methyl)-piperazin-1-yl]-3-fluoro-phenyl}-3,3,3-trifluoro-2-piperidin-2-ylmethyl-propionamide], for which the IC50 turned out to be 10000 nM.

For `CCNC(=O)C(c1ccccc1)N1CCN(c2ccc(NC(=O)CN3CCN(C(C)C)CC3)cc2F)CC1` (centres unmarked) [Example 95, N-Ethyl-2-(4-{2-fluoro-4-[2-(4-isopropyl-piperazin-1-yl)-acetylamino]-phenyl}-piperazin-1-yl)-2-phenyl-acetamide], the IC50 was 10000 nM.

In the case of `CCNC(=O)C(c1ccccc1)N1CCN(c2ccc(NC(=O)C3CCN3C3CCCCC3)cc2F)CC1` (centres unmarked) [Example 96, 1-Cyclohexyl-azetidine-2-carboxylic acid {4-[4-(ethylcarbamoyl-phenyl-methyl)-piperazin-1-yl]-3-fluoro-phenyl}-amide], the IC50 came out at 9000 nM.

On to `CCNC(=O)C(c1ccccc1)N1CCN(c2ccc(NC(=O)/C=C\c3ccccc3OC)cc2F)CC1` (centres unmarked) [Example 97, (Z)—N-{4-[4-(Ethylcarbamoyl-phenyl-methyl)-piperazin-1-yl]-3-fluoro-phenyl}-3-(2-methoxy-phenyl)-acryl amide], for which the IC50 came to 1100 nM.

`COC(=O)C(c1ccccc1)N1CCN(c2ccc(NC(=O)c3cccnc3)cc2)CC1` (centres unmarked) [Example 98, Phenyl-(4-{4-[(pyridine-3-carbonyl)-amino]-phenyl}-piperazin-1-yl)-acetic acid methyl ester]: the IC50 was found to be 12000 nM.

Turning to `COC(=O)C(c1ccccc1)N1CCN(c2ccc(NC(=O)c3ccccc3I)cc2F)CC1` (centres unmarked) [Example 99, {4-[2-Fluoro-4-(2-iodo-benzoylamino)-phenyl]-piperazin-1-yl}-phenyl-acetic acid methyl ester], the IC50 is 250 nM.

By IC50 is commonly meant the concentration at which inhibition is half-maximal.
